SMILES strings stand for the structures.

One test relates to Meloidogyne incognita. Briefly: Meloidogyne incognita test (sand, lettuce, gall formation). The following applies: Meloidogyne incognita, 336 h, 4 ppm, after 14 days; read-out: nematicidal efficacy (formation of galls). The class given is in vivo. Put shortly: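 Vessels held sand, diluted compound solution, M. incognita egg/larvae suspension and lettuce seeds, and the plants grew for 14 days. Efficacy in % came from root gall formation: 100% means no galls, 0% means galls equal to the untreated control.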
On to `CCOc1ccc(Cl)c(S(=O)(=O)NC(=O)c2cn(-c3c(F)cccc3F)cn2)c1` [I-356], for which the pest or weed control at 4 ppm was 90%.
Regarding `CC(C)Oc1ccc(Cl)c(S(=O)(=O)NC(=O)c2cn(-c3c(F)cccc3F)cn2)c1` [I-357], the pest or weed control at 4 ppm was 90%.

The same test, now with this note: Meloidogyne incognita, 336 h, 20 ppm, after 14 days; read-out: nematicidal efficacy (formation of galls).
For `Cc1nc(C(=O)NS(=O)(=O)c2cc(Cl)ccc2Cl)cn1-c1cc(F)cc(F)c1` [I-329], the pest or weed control at 20 ppm was determined as 100%.
`Cc1nc(C(=O)NS(=O)(=O)c2ccccc2Cl)cn1-c1cc(F)cc(F)c1` [I-331]: the pest or weed control at 20 ppm worked out at 100%.
As for `COc1ccc(Cl)c(S(=O)(=O)NC(=O)c2cn(-c3cc(F)cc(C(F)(F)F)c3)c(C)n2)c1` [I-332], the pest or weed control at 20 ppm was determined as 100%.
For the molecule `Cc1nc(C(=O)NS(=O)(=O)c2ccccc2Cl)cn1-c1cc(F)cc(C(F)(F)F)c1` [I-334], the pest or weed control at 20 ppm was determined as 100%.
As for `COc1ccc(F)c(S(=O)(=O)NC(=O)c2cn(-c3cc(Cl)cc(C(F)(F)F)c3)cn2)c1` [I-335], the pest or weed control at 20 ppm was found to be 90%.
`COc1ccc(Br)c(S(=O)(=O)NC(=O)c2cn(-c3cc(Cl)cc(C(F)(F)F)c3)cn2)c1` [I-336]: the pest or weed control at 20 ppm worked out at 100%.
On the same count and under the same terms, in the case of `CCOc1ccc(Cl)c(S(=O)(=O)NC(=O)c2cn(-c3cc(Cl)cc(C(F)(F)F)c3)cn2)c1` [I-337] it was 100%; in that of `COc1ccc(F)c(S(=O)(=O)NC(=O)c2cn(-c3cc(F)cc(Cl)c3)cn2)c1` [I-338], 100%.
Still for that read-out and setting: the same measure for `COc1ccc(Br)c(S(=O)(=O)NC(=O)c2cn(-c3cc(F)cc(Cl)c3)cn2)c1` [I-339]: 100%; for `CCOc1ccc(Cl)c(S(=O)(=O)NC(=O)c2cn(-c3cc(F)cc(Cl)c3)cn2)c1` [I-340]: 100%.
Turning to `CC(C)Oc1ccc(Cl)c(S(=O)(=O)NC(=O)c2cn(-c3cc(F)cc(Cl)c3)cn2)c1` [I-341], the pest or weed control at 20 ppm turned out to be 100%.
On to `Cc1ccc(C)c(S(=O)(=O)NC(=O)c2cn(-c3cc(F)cc(Cl)c3)cn2)c1` [I-342], for which the pest or weed control at 20 ppm was 90%.
Same read-out and setting: in the case of `O=C(NS(=O)(=O)c1cc(Cn2cccn2)ccc1Cl)c1cn(-c2cc(F)cc(Cl)c2)cn1` [I-343] it was 90%.
For `CC(C)Oc1ccc(Cl)c(S(=O)(=O)NC(=O)c2cn(-c3cc(Cl)cc(C(F)(F)F)c3)cn2)c1` [I-344], the pest or weed control at 20 ppm was found to be 90%.
With `Cc1ccc(C)c(S(=O)(=O)NC(=O)c2cn(-c3cc(Cl)cc(C(F)(F)F)c3)cn2)c1` [I-345], the pest or weed control at 20 ppm came to 100%.
As for `COc1ccc(F)c(S(=O)(=O)NC(=O)c2cn(-c3cc(Cl)cc(Cl)c3)cn2)c1` [I-347], the pest or weed control at 20 ppm is 100%.
Still for that read-out and setting: in the case of `COc1ccc(Br)c(S(=O)(=O)NC(=O)c2cn(-c3cc(Cl)cc(Cl)c3)cn2)c1` [I-348] it was 100%.
On the same count and under the same terms, the same measure for `CCOc1ccc(Cl)c(S(=O)(=O)NC(=O)c2cn(-c3cc(Cl)cc(Cl)c3)cn2)c1` [I-349]: 100%.
For the molecule `CC(C)Oc1ccc(Cl)c(S(=O)(=O)NC(=O)c2cn(-c3cc(Cl)cc(Cl)c3)cn2)c1` [I-350], the pest or weed control at 20 ppm turned out to be 100%.
`Cc1ccc(C)c(S(=O)(=O)NC(=O)c2cn(-c3cc(Cl)cc(Cl)c3)cn2)c1` [I-351]: the pest or weed control at 20 ppm turned out to be 100%.
Same read-out and setting: the same measure for `COc1ccc(F)c(S(=O)(=O)NC(=O)c2cn(-c3cc(F)cc(C(F)(F)F)c3)cn2)c1` [I-352]: 100%; for `COc1ccc(Br)c(S(=O)(=O)NC(=O)c2cn(-c3cc(F)cc(C(F)(F)F)c3)cn2)c1` [I-353]: 100%.
As to `CC(C)Oc1ccc(Cl)c(S(=O)(=O)NC(=O)c2cn(-c3cc(F)cc(C(F)(F)F)c3)cn2)c1` [I-354], the pest or weed control at 20 ppm was 100%.
On the same count and under the same terms, in the case of `Cc1ccc(C)c(S(=O)(=O)NC(=O)c2cn(-c3cc(F)cc(C(F)(F)F)c3)cn2)c1` [I-355] it was 100%; in that of `Cc1ccc(C)c(S(=O)(=O)NC(=O)c2cn(-c3c(F)cccc3F)cn2)c1` [I-358], 100%.
As for `COc1ccc(Cl)c(S(=O)(=O)NC(=O)c2cn(-c3c(F)cccc3F)cn2)c1` [I-359], the pest or weed control at 20 ppm is 90%.
For `COc1ccc(F)c(S(=O)(=O)NC(=O)c2cn(-c3c(F)cccc3F)cn2)c1` [I-360], the pest or weed control at 20 ppm is 90%.
Regarding `COc1ccc(Br)c(S(=O)(=O)NC(=O)c2cn(-c3c(F)cccc3F)cn2)c1` [I-361], the pest or weed control at 20 ppm worked out at 90%.
For the molecule `Cc1nc(C(=O)NS(=O)(=O)c2c(Cl)cccc2Cl)cn1-c1c(F)cccc1F` [I-362], the pest or weed control at 20 ppm came out at 90%.
Regarding `COc1ccc(Cl)c(S(=O)(=O)NC(=O)c2cn(-c3c(F)cccc3F)c(C)n2)c1` [I-363], the pest or weed control at 20 ppm came to 90%.
As to `CCOc1ccc(Cl)c(S(=O)(=O)NC(=O)c2cn(-c3c(F)cccc3F)c(C)n2)c1` [I-364], the pest or weed control at 20 ppm is 90%.
`Cc1nc(C(=O)NS(=O)(=O)c2cc(Cl)ccc2Cl)cn1-c1c(F)cccc1F` [I-365]: the pest or weed control at 20 ppm is 100%.
The same measure, in the same setting: the same measure for `Cc1nc(C(=O)NS(=O)(=O)c2cc(OC(C)C)ccc2Cl)cn1-c1cc(Cl)cc(Cl)c1` [I-366]: 100%; for `COc1ccc(F)c(S(=O)(=O)NC(=O)c2cn(-c3cc(Cl)cc(Cl)c3)c(C)n2)c1` [I-367]: 100%.
In the case of `COc1ccc(Br)c(S(=O)(=O)NC(=O)c2cn(-c3cc(Cl)cc(Cl)c3)c(C)n2)c1` [I-368], the pest or weed control at 20 ppm is 90%.
In the case of `COc1ccc(F)c(S(=O)(=O)NC(=O)c2cn(-c3cc(F)cc(Cl)c3)c(C)n2)c1` [I-369], the pest or weed control at 20 ppm worked out at 100%.
Regarding `COc1ccc(Br)c(S(=O)(=O)NC(=O)c2cn(-c3cc(F)cc(Cl)c3)c(C)n2)c1` [I-370], the pest or weed control at 20 ppm is 70%.
Same read-out and setting: the same measure for `COc1ccc(F)c(S(=O)(=O)NC(=O)c2cn(-c3cc(F)cc(F)c3)c(C)n2)c1` [I-371]: 90%.
As for `CC(=O)c1ccc(Cl)c(S(=O)(=O)NC(=O)c2cn(-c3cc(Cl)cc(Cl)c3)c(C)n2)c1` [I-372], the pest or weed control at 20 ppm worked out at 100%.
With `CSc1cccc(Cl)c1S(=O)(=O)NC(=O)c1cn(-c2cc(Cl)cc(Cl)c2)c(C)n1` [I-374], the pest or weed control at 20 ppm turned out to be 100%.
Still for that read-out and setting: the same measure for `CCSc1cccc(Cl)c1S(=O)(=O)NC(=O)c1cn(-c2cc(Cl)cc(Cl)c2)c(C)n1` [I-375]: 100%; for `Cc1nc(C(=O)NS(=O)(=O)c2c(Cl)cccc2SC(C)C)cn1-c1cc(Cl)cc(Cl)c1` [I-376]: 90%; for `Cc1nc(C(=O)NS(=O)(=O)c2c(F)cccc2NC(C)C)cn1-c1cc(Cl)cc(Cl)c1` [I-377]: 90%.
Turning to `Cc1nc(C(=O)NS(=O)(=O)c2c(F)cccc2Cl)cn1-c1cc(Cl)cc(Cl)c1` [I-378], the pest or weed control at 20 ppm amounted to 100%.
As for `Cc1nc(C(=O)NS(=O)(=O)c2c(F)cccc2NC2CC2)cn1-c1cc(Cl)cc(Cl)c1` [I-379], the pest or weed control at 20 ppm was 100%.
For `Cc1nc(C(=O)NS(=O)(=O)c2c(F)cccc2NC2CC2)cn1-c1cc(F)cc(Cl)c1` [I-380], the pest or weed control at 20 ppm was found to be 100%.
Still for that read-out and setting: the same measure for `Cc1nc(C(=O)NS(=O)(=O)c2c(F)cccc2NC(C)C)cn1-c1cc(F)cc(Cl)c1` [I-381]: 100%.
For the molecule `CSc1cccc(Cl)c1S(=O)(=O)NC(=O)c1cn(-c2cc(F)cc(Cl)c2)c(C)n1` [I-382], the pest or weed control at 20 ppm turned out to be 100%.
As for `CCSc1cccc(Cl)c1S(=O)(=O)NC(=O)c1cn(-c2cc(F)cc(Cl)c2)c(C)n1` [I-383], the pest or weed control at 20 ppm is 100%.
With `Cc1nc(C(=O)NS(=O)(=O)c2c(Cl)cccc2SC(C)C)cn1-c1cc(F)cc(Cl)c1` [I-384], the pest or weed control at 20 ppm was found to be 100%.
As to `CSc1cccc(Cl)c1S(=O)(=O)NC(=O)c1cn(-c2cc(F)cc(F)c2)c(C)n1` [I-386], the pest or weed control at 20 ppm came to 100%.
For the molecule `Cc1nc(C(=O)NS(=O)(=O)c2c(Cl)cccc2SC(C)C)cn1-c1cc(F)cc(F)c1` [I-388], the pest or weed control at 20 ppm came to 100%.
The same measure, in the same setting: in the case of `Cc1nc(C(=O)NS(=O)(=O)c2c(F)cccc2NC2CC2)cn1-c1cc(F)cc(F)c1` [I-389] it was 100%.
For the molecule `CSc1cccc(Cl)c1S(=O)(=O)NC(=O)c1cn(-c2cc(Cl)cc(Cl)c2)cn1` [I-390], the pest or weed control at 20 ppm turned out to be 100%.
For the molecule `O=C(NS(=O)(=O)c1c(F)cccc1NC1CC1)c1cn(-c2cc(Cl)cc(Cl)c2)cn1` [I-393], the pest or weed control at 20 ppm is 100%.
On the same count and under the same terms, the same measure for `CCc1nc(C(=O)NS(=O)(=O)c2cc(OC)ccc2Cl)cn1-c1cc(F)cc(F)c1` [I-394]: 100%; for `COc1ccc(Cl)c(S(=O)(=O)NC(=O)c2cn(-c3cc(F)cc(F)c3)c(C(C)C)n2)c1` [I-395]: 90%; for `Cc1nc(C(=O)NS(=O)(=O)c2c(F)cccc2Cl)cn1-c1cc(F)cc(Cl)c1` [I-396]: 90%.
As for `Cc1nc(C(=O)NS(=O)(=O)c2c(F)cccc2Cl)cn1-c1cc(F)cc(F)c1` [I-397], the pest or weed control at 20 ppm stood at 70%.
Turning to `CC(C)Sc1cccc(Cl)c1S(=O)(=O)NC(=O)c1cn(-c2cc(Cl)cc(Cl)c2)cn1` [I-398], the pest or weed control at 20 ppm was determined as 90%.
Take `Cc1nc(C(=O)NS(=O)(=O)c2c(F)cccc2Cl)cn1-c1cc(Cl)cc(C(F)(F)F)c1` [I-399]: the pest or weed control at 20 ppm worked out at 90%.
`Cc1nc(C(=O)NS(=O)(=O)c2c(F)cccc2Cl)cn1-c1cc(F)cc(C(F)(F)F)c1` [I-400]: the pest or weed control at 20 ppm came out at 90%.
Still for that read-out and setting: in the case of `CCc1nc(C(=O)NS(=O)(=O)c2cc(OC)ccc2Cl)cn1-c1cc(Cl)cc(Cl)c1` [I-402] it was 90%; in that of `COc1ccc(Cl)c(S(=O)(=O)NC(=O)c2cn(-c3cc(Cl)cc(Cl)c3)c(C(C)C)n2)c1` [I-403], 90%.
For `CCc1nc(C(=O)NS(=O)(=O)c2cc(OC)ccc2Cl)cn1-c1cc(F)cc(C(F)(F)F)c1` [I-404], the pest or weed control at 20 ppm is 90%.
Turning to `COc1ccc(Cl)c(S(=O)(=O)NC(=O)c2cn(-c3cc(F)cc(C(F)(F)F)c3)c(C(C)C)n2)c1` [I-405], the pest or weed control at 20 ppm stood at 100%.

The values are drawn from patent publication US10820591B2, “Substituted sulfonyl amides for controlling animal pests” (Bayer Aktiengesellschaft, priority 2016, dated 2020).
